Experimental data from a melting point compilation (Tetko et al.; mined from patent text by program, amines drawn as free bases though some values may be those of a salt).

With `O=C(O)Cc1cccc(Oc2ccccc2)c1O` the melting point was 132 to 135 °C.
Work on `Cc1nc2c(s1)C(=O)C=C(NCCCN(C)CCCNC1=CC(=O)c3sc(C)nc3C1=O)C2=O` yielded a melting point of 94 to 96 °C.
`CC1(c2ccccc2)SC(=NO)N(Nc2ccccc2)C1=O` (centres undefined) gave a melting point of 62 to 63 °C.
Work on `Cc1csc(C(=O)OC(C)C)c1S(=O)(=O)Cl` yielded a melting point of 58 °C.
With `Cn1c(=O)c(-c2c(Cl)cccc2Cl)cc2cnc(Nc3cccc(C(=O)O)c3)nc21` the melting point was > 300 °C.
Work on `CCC(C)(CC)c1nnc(NC(=O)c2c(OC)cccc2OC)[nH]1` yielded a melting point of 279 to 280 °C.
With `C=C(C)C(=O)OCCCCCCN(C)c1ccc(C=Cc2ccc([N+](=O)[O-])cc2)cc1` the melting point was 109 to 111 °C.
With `COc1cccc(N(CC(=O)N(C)c2ccccc2)C(=O)CNC(=O)Nc2cccc(C)c2)c1` the melting point was 179 °C.
`CCNC(=O)N1CC(Oc2cccc(C(F)(F)F)c2)C1` gave a melting point of 125 to 126 °C.
In the case of `C[C@@H](C(N)=O)c1ccc(NS(C)(=O)=O)c(F)c1`, the melting point is reported as 40 to 42 °C.
`Cc1nc(-c2ccc(F)cc2Cl)nn1-c1ccccc1C(F)(F)F` showed a melting point of 116 °C.
In the case of `Nc1ccc(N2C(=O)CCCC2=O)cc1`, the melting point is reported as 214 to 215 °C.
`O=C(NCCCCCCNC(=O)OC1CCCCC1)OC1CCCCC1` gave a melting point of 98 to 100 °C.
`O=C(O)C1Cc2c(c(Cl)cc3c(-c4ccccc4)noc23)O1` (centres undefined) showed a melting point of 221 to 224 °C.
Work on `CCOC(=O)c1c(C(C)(C)O)nc(CO)n1Cc1ccc(-c2ccccc2-c2nnnn2C(c2ccccc2)(c2ccccc2)c2ccccc2)cc1` yielded a melting point of 151 to 152 °C.
For `O=C(O)C=C1SC(Nc2c(Cl)cccc2Cl)=NC1=O`, the melting point was > 230 °C.
With `COc1cc(N)c(Cl)cc1C(=O)NCC1CCN(CCCCCN2C(=O)c3ccccc3C2=O)CC1` the melting point was 58 to 61 °C.
Compound `CN1c2ccc(S(=O)(=O)N3CCOCC3)cc2S(=O)(=O)NC1C1CCCCC1` (centres undefined) has a melting point of 207 to 210 °C.
For `CN1C(=O)CSC1c1cccnc1` (centres undefined), the melting point was 96.5 to 97.5 °C.
`O=C(Nc1ccc(-n2nc(C(F)(F)F)cc2OC(F)F)cc1)c1ccccc1F` gave a melting point of 130 to 131 °C.
With `OC(c1ccc2c(c1)CCN2)(C(F)F)C(F)F` the melting point was 130 to 134 °C.
Work on `Cc1c(-c2ccc(O)cc2)n(Cc2ccc(/C=C/C(=O)N(C)C)cc2)c2ccc(O)cc12` yielded a melting point of 278 to 280 °C.
With `CCOCc1nc2c(N)nc3ccccc3c2n1N(C)C` the melting point was 213 to 215 °C.
Work on `Cc1ccc2c(-c3cccc(O)c3)nc(=O)n(C(C)C)c2c1` yielded a melting point of 270 to 272 °C.
Work on `CCCCc1nc(C(F)(F)F)c(CO)n1Cc1ccc(-c2ccccc2C(=O)O)cc1` yielded a melting point of 198 to 200 °C.
`CC(C)(C)c1cc(C2CC(=O)N(c3ccccc3)C2=O)cc(C(C)(C)C)c1O` (centres undefined) showed a melting point of 204 °C.
With `CC(C)CC1C(=O)NCCN1Cc1ccccc1` (centres undefined) the melting point was 126 to 127 °C.
`c1ccc(NCP2CN(c3ccccc3)CN(c3ccccc3)C2)cc1` showed a melting point of 96 to 97 °C.
Compound `O=C1c2ccc(Br)cc2C(=O)N1c1ccc(Cl)cc1C(F)(F)F` has a melting point of 174 to 175 °C.
For `CC1(C)CC2(CC(C)(C)c3ccc(Oc4cccc(N)c4)cc32)c2cc(Oc3cccc(N)c3)ccc21`, the melting point was 206 °C.
With `CC(C)OC(=O)Cc1nc(-c2ccccc2)oc1-c1ccsc1` the melting point was 62 to 63 °C.
Compound `COc1ccc(Cl)c(Nc2c(C#N)cnc3c2C=C2N=CN=C2C3)c1` has a melting point of 296 to 298 °C.
`CC(=O)c1ccc2c(c1)C(Cc1ccccc1)=CC(=CCl)CO2` gave a melting point of 89 to 94 °C.
Compound `O=C(CNc1c(C(=O)O)[nH]c2cc(Cl)cc(Cl)c12)c1ccc(Cl)cc1` has a melting point of 279 to 283 °C.
In the case of `OCC1CCC2=C(Cc3ccccc32)C1CN1CCCCC1CO` (centres undefined), the melting point is reported as 151 to 159 °C.
`CC1Cc2cc(S(N)(=O)=O)cc(C(=O)NCC3CCCN3Cc3ccccc3)c2O1` (centres undefined) gave a melting point of 161 to 167 °C.
For `CC1(C)Oc2ccc(Cl)cc2[C@@H](n2ccccc2=O)[C@@H]1O` (relative stereo), the melting point was 250 °C.
For `CCc1c(-c2ccc(O)cc2)c2c(C(=O)N(C)CCN(C)C)cc3cc(OC)cc1n32`, the melting point was 190 to 200 °C.
With `CN1CCC(C(=O)Nc2ccc(CN(C)C3CCOCC3)cc2)=Cc2cc(-c3ccc(OC(F)(F)F)cc3)ccc21` the melting point was 182 to 183 °C.
Work on `CN(C)c1ccc(C(=O)c2ccc(O)cc2)cc1` yielded a melting point of 199 to 200 °C.
For `O=C1Nc2ccc(Cl)cc2C1(NCCc1ccccn1)c1ccccc1Cl` (centres undefined), the melting point was 178 °C.
With `CCCCN1C(=O)NC(=Cc2cccs2)C1=O` the melting point was 140 °C.
`CNC(=O)Oc1cc(C)c(NC(=O)COC)c(C)c1` gave a melting point of 180 to 182 °C.
`CC(OCc1ccc(-c2ccc(Cl)cc2)cc1)(C(=O)O)c1ccccc1` (centres undefined) gave a melting point of 125 to 126 °C.
`CC(=O)NCc1ccc(CN2CCN(c3ccc(F)cc3)CC2)cc1` gave a melting point of 164 to 166 °C.
Compound `Cc1oc2c(C)c(C)c(NC(=O)c3ccc(F)cc3)c(C)c2c1-c1ccc(F)cc1` has a melting point of 232 to 234 °C.
`Cc1cc(C)c(C(O)c2cc(-n3ccnc3)ccc2C)c(C)c1` (centres undefined) gave a melting point of 190 to 191 °C.
Compound `O=C(O)c1ccc(SC(Cn2ccnc2)c2ccc(C(F)(F)F)cc2)cc1` (centres undefined) has a melting point of 92 to 95 °C.
Work on `COC(=O)CCc1ccc(OC2Cc3ccccc3C2)cc1` yielded a melting point of 73 to 74 °C.
